Experiments:
[1] = DLS size and PDI of cortisone and hydrocortisone milled with F127 (Example 7); assay type: physicochemical; conditions: suspension milled with 5% F127 in PBS pH 7.1, 25 hours
Method: A milling procedure was employed in which aqueous dispersions containing coarse compound particles were individually milled with F127 at near-neutral pH buffer using a grinding medium. Briefly, a slurry containing 5% of compound and 5% F127 in PBS (0.0067 M PO43), pH 7.1 was added to an equal bulk volume of 1-mm ceria-stabilized zirconium oxide beads in a glass vial (e.g., 2 mL of slurry per 2 mL of beads). A magnetic stir bar was used to agitate the beads, stirring at approximately 500 rpm at ambient conditions for 25 hours.
The milled suspensions were subjected to dynamic light scattering (DLS) measurements to determine particle size and polydispersity index (PDI, a measure of the width of the particle size distribution). The samples for DLS measurements were buffered with HyClone™ PBS (phosphate-buffered saline) to produce isotonic samples that have a physiologically relevant pH.

[2] = XRPD crystal form before and after milling (Example 8); assay type: physicochemical; conditions: input vs milled with F127
From the text: Particles were isolated by centrifugation, then resuspended in H2O and then recentrifuged. The wet sample was resuspended in H2O and deposited thinly and evenly onto a flat zero background sample holder (Rigaku 906165). The sample was allowed to air dry.
Milligram amounts were packed as an evenly thin layer of solid onto a zero background sample holder (Rigaku 906165).
X-ray Powder Diffraction (XRPD) patterns were obtained using a Rigaku MiniFlex 600 benchtop x-ray diffractometer equipped with a Cu X-ray tube (Cu/Kα=1.54059 Å), a six-position sample changer and a D/teX Ultra detector. […] Diffraction patterns were viewed and analyzed using PDXL analysis software provided by the instrument manufacturer. A reference standard silicon powder (NIST Standard Reference Material 640d) generated a peak at 28.43° and 28.45° two theta when samples were prepared as suspension in H2O (to simulate Procedure A) and Procedure B, respectively.
All input crystalline forms were arbitrarily designated as “A” forms. New forms that emerged after milling, if any, were sequentially designated as “B”, “C”, etc.

Compound	PDI [1]	Size (Z-average) [1] [nm]	Crystal form change after milling of "A" forms? [2]
C[C@]12CCC(=O)C=C1CC[C@@H]1[C@@H]2C(=O)C[C@@]2(C)[C@H]1CC[C@]2(O)C(=O)CO [Compound 1, Cortisone]	0.074	225	No
C[C@]12CCC(=O)C=C1CC[C@@H]1[C@@H]2[C@@H](O)C[C@@]2(C)[C@H]1CC[C@]2(O)C(=O)CO [Compound 2, hydrocortisone]	0.258	357	No

Reference: US20190216824A1, “Particles, Compositions and Methods for Ophthalmic and/or Other Applications” (priority 2016, published 2019)
